Measurements reported in patent EP3696177A1, “HETEROCYCLIC COMPOUNDS FOR THE CONTROL OF INVERTEBRATE PESTS” (BASF SE, priority 2019, dated 2020).

How the values were obtained:
Assay type in all cases: in vivo
Caenorhabditis elegans = Caenorhabditis elegans liquid diet microtiter plate test; settings: 96 h, read-out: mortality in comparison with untreated controls (nematode motility (mortality))
Procedure: For evaluating control of Caenorhabditis elegans through contact or systemic means the test unit consisted of 96-well-microtiter plates containing a liquid diet.
The compounds or mixtures were formulated using a solution containing 75% water and 25% DMSO. Different concentrations of formulated compounds were sprayed into the microtiter plate wells at 5µl per well, using a custom built micro atomizer, at two replications. Mixed instar 60-100 C. elegans were transferred into the micro-titer plate wells. After application, the nematodes were incubated at 18 + 1°C, 70 + 5 % RH for 4 days. Nematode motility (mortality) was then visually assessed.

Plutella xylostella = test: Diamond back moth (Plutella xylostella) cabbage leaf disc dip test; settings: foliar, 72 h, read-out: mortality in comparison with untreated controls
Procedure: The active compound is dissolved at the desired concentration in a mixture of 1:1 (vol:vol) distilled water: acetone. Surfactant (Kinetic) is added at a rate of 0.01% (vol/vol). The test solution is pre-pared at the day of use.
Cabbage leaf discs (60mm in diameter) are dipped in test solution and air-dried. Treated leaves are placed in petri dishes lined with moistened filter paper and inoculated with ten 3rd instar larvae. Mortality is recorded 72 hours after treatment. Feeding damage is also recorded using a scale of 0-100%.

Tetranychus kanzawai = test: Red spider mite (Tetranychus kanzawai) spray test on cowpea beans; settings: topical, 72 h, read-out: mortality in comparison with untreated controls
Procedure: The active compound is dissolved at the desired concentration in a mixture of 1:1 (vol:vol) distilled water: acetone. Add surfactant (Kinetic) is added at a rate of 0.01% (vol/vol). The test solution is prepared at the day of use.
Potted cowpea beans of 4-5 days of age are cleaned with tap water and sprayed with 1-2 ml of the test solution using air driven DeVilbiss® hand atomizer at 20- 30 psi (≈ 1,38 to 2,07 bar). The treated plants are allowed to air dry and afterwards inoculated with 30 or more mites by clipping a cassava leaf section from rearing population. Treated plants are placed inside a holding room at about 25-26°C and about 65-70% relative humidity. Estimate percent mortality is assessed 72 hours after treatment.

Heliothis virescens = test: Tobacco budworm (Heliothis virescens) insect diet microtiter plate test; settings: 120 h, read-out: mortality in comparison with untreated controls (egg and larval mortality)
Procedure: For evaluating control of tobacco budworm (Heliothis virescens) the test unit consisted of 96-well-microtiter plates containing an insect diet and 15-25 H. virescens eggs.
The compounds were formulated using a solution containing 75% v/v water and 25% v/v DMSO. Different concentrations of formulated compounds were sprayed onto the insect diet at 10 µl, us-ing a custom built micro atomizer, at two replications.
After application, microtiter plates were incubated at about 28 + 1°C and about 80 + 5 % relative humidity for 5 days. Egg and larval mortality was then visually assessed.

dichromothrips corbetti = test: Orchid thrips floral-immersion test; settings: 72 h, read-out: mortality in comparison with untreated controls
Procedure: Dichromothrips corbetti adults used for bioassay are obtained from a colony maintained continu-ously under laboratory conditions. For testing purposes, the test compound is diluted in a 1:1 mix-ture of acetone:water (vol:vol), plus Kinetic at a rate of 0.01% v/v.
Thrips potency of each compound is evaluated by using a floral-immersion technique. Each orchid petal is dipped into treatment solution and allowed to dry in Petri dishes. Treated petals are placed into individual re-sealable plastic along with about 20 adult thrips. All test arenas are held under dark condition and a temperature of about 28°C for duration of the assay. The percent mor-tality is recorded 72 hours after treatment.

Aedes aegypti = test: whole plant or invertebrate; settings: 48 h, A. aegypti larvae, incubated 2 days, read-out: mortality in comparison with untreated controls (larval mortality)
Procedure: For evaluating control of yellow fever mosquito (Aedes aegypti) the test unit consisted of 96-well-microtiter plates containing 200µl of tap water per well and 5-15 freshly hatched A. aegypti larvae.
The active compounds were formulated using a solution containing 75% (v/v) water and 25% (v/v) DMSO. Different concentrations of formulated compounds or mixtures were sprayed onto the insect diet at 2.5µl, using a custom built micro atomizer, at two replications.
After application, microtiter plates were incubated at 28 + 1°C, 80 + 5 % RH for 2 days. Larval mortality was then visually assessed.

Nezara viridula = test: Green soldier stink bug (Nezara viridula) soybean pod spray test; settings: 120 h, late 3rd instar N. viridula, after 5 days, read-out: mortality in comparison with untreated controls
Procedure: The active compound is dissolved at the desired concentration in a mixture of 1:1 (vol:vol) distilled water: aceteone. Surfactant (Kinetic) is added at a rate of 0.01% (vol/vol).The test solution is prepared at the day of use.
Soybean pods are placed in 90 x 50 mm glass Petri dishes lined with moistened filter paper and inoculated with ten late 3rd instar N. viridula. Using a hand atomizer, an approximately 2 ml solution is sprayed into each Petri dish. Treated set-up is kept at about 25-26°C and relative humidity of about 65-70%. Percent mortality is recorded after 5 days.

Myzus persicae = test: Green peach aphid (Myzus persicae) artificial diet/membrane systemic test; settings: 72 h, read-out: mortality in comparison with untreated controls
Text: For evaluating control of green peach aphid (Myzus persicae) through systemic means the test unit consisted of 96-well-microtiter plates containing liquid artificial diet under an artificial membrane.
The compounds were formulated using a solution containing 75% v/v water and 25% v/v DMSO. Different concentrations of formulated compounds were pipetted into the aphid diet, using a cus-tom built pipetter, at two replications.
After application, 5 - 8 adult aphids were placed on the artificial membrane inside the microtiter plate wells. The aphids were then allowed to suck on the treated aphid diet and incubated at about 23 + 1°C and about 50 + 5 % relative humidity for 3 days. Aphid mortality and fecundity was then visually assessed.

Anthonomus grandis = test: Boll weevil (Anthonomus grandis) insect diet microtiter plate test; settings: 120 h, read-out: mortality in comparison with untreated controls (egg and larval mortality)
Procedure: For evaluating control of boll weevil (Anthonomus grandis) the test unit consisted of 96-well-microtiter plates containing an insect diet and 5-10 A. grandis eggs.
The compounds were formulated using a solution containing 75% v/v water and 25% v/v DMSO. Different concentrations of formulated compounds were sprayed onto the insect diet at 5 µl, using a custom built micro atomizer, at two replications.
After application, microtiter plates were incubated at about 25 + 1°C and about 75 + 5 % relative humidity for 5 days. Egg and larval mortality was then visually assessed.

Megoura viciae = test: Vetch aphid (Megoura viciae) broad bean leaf disk test; settings: foliar, 120 h, read-out: mortality in comparison with untreated controls
Procedure: For evaluating control of vetch aphid (Megoura viciae) through contact or systemic means the test unit consisted of 24-well-microtiter plates containing broad bean leaf disks.
The compounds were formulated using a solution containing 75% v/v water and 25% v/v DMSO. Different concentrations of formulated compounds were sprayed onto the leaf disks at 2.5 µl, us-ing a custom built micro atomizer, at two replications.
After application, the leaf disks were air-dried and 5 - 8 adult aphids placed on the leaf disks in-side the microtiter plate wells. The aphids were then allowed to suck on the treated leaf disks and incubated at about 23 + 1°C and about 50 + 5 % relative humidity for 5 days. Aphid mortality and fecundity was then visually assessed.

Nephotettix virescens = test: Rice green leafhopper (Nephotettix virescens) spray test on rice seedlings; settings: adults, after 72 hours, read-out: mortality in comparison with untreated controls
Procedure: Four to five-week old rice seedlings with cut upper leaf portion are cleaned and washed 24 hours before spraying. The active compounds are formulated in 1:1 acetone:water (vol:vol), and 0.01% vol/vol surfactant (Kinetic) is added. Potted rice seedlings are sprayed with 5-6 ml test solution, air dried, covered with Mylar cages and inoculated with 10 adults. Treated rice plants are kept at about 28-29°C and relative humidity of about 50-60%. Percent mortality is recorded after 72 hours.

Aphis craccivora = test: Cowpea aphid (Aphis craccivora) spray test on potted cowpea plants; settings: aphids of various stages, after 72 hours, read-out: mortality in comparison with untreated controls
Procedure: The active compound is dissolved at the desired concentration in a mixture of 1:1 (vol: vol) distilled water: acetone. Surfactant (Kinetic) is added at a rate of 0.01% (vol/vol). The test solution is prepared at the day of use.
Potted cowpea plants are colonized with approximately 30 - 50 aphids of various stages by man-ually transferring aphid-infested leaf clippings 24 hours before application. Plants are sprayed with the test solutions using a DeVilbiss® hand atomizer at 20- 30 psi (≈ 1.38 to 2.07 bar) after the pest population has been checked. Treated plants are maintained on light carts at about 25- 26°C. Estimate percent mortality is assessed after 72 hours.

CC(C)N1C(=O)SC(NC(=O)c2ccc(C3=NOC(c4cc(Cl)cc(Cl)c4)(C(F)(F)F)C3)cc2Cl)C1=O (stereo not drawn) [Compound I-1-3]
> 75%: mortality at 2500 ppm (Caenorhabditis elegans) | mortality at 300 ppm (Plutella xylostella) | mortality at 300 ppm (Tetranychus kanzawai) | mortality at 2500 ppm (Heliothis virescens) | mortality at 300 ppm (dichromothrips corbetti) | mortality at 2500 ppm (Aedes aegypti) | mortality at 300 ppm (Nezara viridula) | mortality at 2500 ppm (Myzus persicae) | mortality at 2500 ppm (Anthonomus grandis) | mortality at 2500 ppm (Megoura viciae)

Cc1cc(C2=NOC(c3cc(Cl)cc(Cl)c3)(C(F)(F)F)C2)ccc1C(=O)NC1SC(=O)N(C)C1=O (stereo not drawn) [Compound I-1-4, 4-[5-(3,5-dichlorophenyl)-5-(trifluoromethyl)-4H-isoxazol-3-yl]-2-methyl-N-(3-methyl-2,4-dioxo-thiazolidin-5-yl)benzamide]
> 75%: mortality at 300 ppm (Plutella xylostella) | mortality at 300 ppm (Tetranychus kanzawai) | mortality at 2500 ppm (Heliothis virescens) | mortality at 300 ppm (dichromothrips corbetti) | mortality at 2500 ppm (Aedes aegypti) | mortality at 300 ppm (Nephotettix virescens) | mortality at 300 ppm (Nezara viridula) | mortality at 2500 ppm (Myzus persicae) | mortality at 2500 ppm (Anthonomus grandis) | mortality at 2500 ppm (Megoura viciae)

Cc1cc(C2=NOC(c3cc(Cl)cc(Cl)c3)(C(F)(F)F)C2)ccc1C(=O)NC1SC(=O)N(C(C)C)C1=O (stereo not drawn) [Compound I-1-6]
> 75%: mortality at 300 ppm (Plutella xylostella) | mortality at 2500 ppm (Heliothis virescens) | mortality at 300 ppm (dichromothrips corbetti) | mortality at 2500 ppm (Aedes aegypti) | mortality at 300 ppm (Nephotettix virescens) | mortality at 300 ppm (Nezara viridula) | mortality at 300 ppm (Aphis craccivora) | mortality at 2500 ppm (Myzus persicae) | mortality at 2500 ppm (Anthonomus grandis) | mortality at 2500 ppm (Megoura viciae)

CN1C(=O)SC(NC(=O)c2ccc(C3=NOC(c4cc(Cl)cc(C(F)(F)F)c4)(C(F)(F)F)C3)c3c2CCC3)C1=O (stereo not drawn) [Compound I-1-8]
> 75%: mortality at 300 ppm (Plutella xylostella) | mortality at 300 ppm (Tetranychus kanzawai) | mortality at 2500 ppm (Heliothis virescens) | mortality at 300 ppm (dichromothrips corbetti) | mortality at 2500 ppm (Aedes aegypti) | mortality at 300 ppm (Nephotettix virescens) | mortality at 300 ppm (Nezara viridula) | mortality at 2500 ppm (Myzus persicae) | mortality at 2500 ppm (Anthonomus grandis) | mortality at 2500 ppm (Megoura viciae)

O=C(NCC1OCN(CC2CC2)C1=O)c1ccc(C2=NOC(c3cc(Cl)c(F)c(Cl)c3)(C(F)(F)F)C2)c2c1CCC2 (stereo not drawn) [Compound I-3-2]
> 75%: mortality at 2500 ppm (Caenorhabditis elegans) | mortality at 300 ppm (Plutella xylostella) | mortality at 300 ppm (Tetranychus kanzawai) | mortality at 2500 ppm (Heliothis virescens) | mortality at 300 ppm (dichromothrips corbetti) | mortality at 2500 ppm (Aedes aegypti) | mortality at 300 ppm (Nephotettix virescens) | mortality at 2500 ppm (Myzus persicae) | mortality at 2500 ppm (Anthonomus grandis) | mortality at 2500 ppm (Megoura viciae)

Cc1cc(C2=NOC(c3cc(Cl)cc(Cl)c3)(C(F)(F)F)C2)ccc1C(=O)NCC1OCN(C)C1=O (stereo not drawn) [Compound I-3-11]
> 75%: mortality at 2500 ppm (Caenorhabditis elegans) | mortality at 300 ppm (Plutella xylostella) | mortality at 300 ppm (Tetranychus kanzawai) | mortality at 2500 ppm (Heliothis virescens) | mortality at 300 ppm (dichromothrips corbetti) | mortality at 2500 ppm (Aedes aegypti) | mortality at 300 ppm (Aphis craccivora) | mortality at 2500 ppm (Myzus persicae) | mortality at 2500 ppm (Anthonomus grandis) | mortality at 2500 ppm (Megoura viciae)

Cc1cc(C2=NOC(c3cc(Cl)cc(Cl)c3)(C(F)(F)F)C2)ccc1C(=O)NCC1OC(=O)N(C)C1=O (stereo not drawn) [Compound I-4-4]
> 75%: mortality at 2500 ppm (Caenorhabditis elegans) | mortality at 300 ppm (Plutella xylostella) | mortality at 300 ppm (Tetranychus kanzawai) | mortality at 2500 ppm (Heliothis virescens) | mortality at 300 ppm (dichromothrips corbetti) | mortality at 2500 ppm (Aedes aegypti) | mortality at 2500 ppm (Myzus persicae) | mortality at 2500 ppm (Anthonomus grandis) | mortality at 2500 ppm (Megoura viciae)
